Results published in patent US9708314B2, “Heterocyclic amide compound” (NISSAN CHEMICAL INDUSTRIES, LTD., priority 2013, dated 2017).

What was measured:
Type in all cases: in vivo
[1] = test system: Echinochloa crus-galli var. crus-galli; assay: Test Example 3: herbicidal effect by application to foliage (Wagner pot, water depth 0.1-0.5 cm); details: Nineteenth Table; application to foliage; application herbicide amount 320 g/ha
Outline: (§1)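 Post-emergence foliar application at a stated g/ha rate to plants grown 14 days from seed in alluvial soil, greenhouse 25–30 °C. Visual score after 3 weeks: 0 (≤5% effect) through 5 (≥90%).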

Leptochloa chinensis = assay: as above; details: Nineteenth Table; application to foliage; application herbicide amount 320 g/ha
Outline: as §1

[2] = test system: directly sowed Oryza sativa; assay: Test Example 3: effect on crop by application to foliage (Wagner pot, water depth 0.1-0.5 cm); details: Nineteenth Table; application to foliage; application herbicide amount 320 g/ha
Outline: as §1

Abutilon theophrasti = assay: Test Example 4: herbicidal effect by application to foliage (diluvial soil, plastic box); details: application to foliage; for herbicidal effect, M (Abutilon theophrasti): 320 g/ha
Outline: (§2)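 Greenhouse plants (25° C. to 30° C., 14 d, diluvial soil) receive a foliar spray of water-diluted emulsifiable formulation at defined g/ha. Grading after 3 weeks uses a six-step herbicidal-ratio scale, with 4 covering 70% to <90% and 1 covering 5% to <20%.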

Alopecurus myosuroides = assay: as above; details: application to foliage; for herbicidal effect, J (Alopecurus myosuroides): 320 g/ha
Outline: as §2

Amaranthus retroflexus = assay: as above; details: application to foliage; for herbicidal effect, N (Amaranthus retroflexus): 320 g/ha
Outline: as §2

Apera spica-venti. = assay: as above; details: application to foliage; for herbicidal effect, L (Apera spica-venti.): 320 g/ha
Outline: as §2

Avena fatua = assay: as above; details: application to foliage; for herbicidal effect, I (Avena fatua): 320 g/ha
Outline: as §2

Chenopodium album = assay: as above; details: application to foliage; for herbicidal effect, O (Chenopodium album): 320 g/ha
Outline: as §2

Digitaria ciliaris = assay: as above; details: application to foliage; for herbicidal effect, F (Digitaria ciliaris): 320 g/ha
Outline: as §2

[3] = test system: Echinochloa crus-galli var. crus-galli; assay: as above; details: application to foliage; for herbicidal effect, H (Echinochloa crus-galli var. crus-galli): 320 g/ha
Outline: as §2

Galium spurium = assay: as above; details: application to foliage; for herbicidal effect, Q (Galium spurium): 320 g/ha
Outline: as §2

Lolium multiflorum Lam. = assay: as above; details: application to foliage; for herbicidal effect, K (Lolium multiflorum Lam.): 320 g/ha
Outline: as §2

Setaria viridis = assay: as above; details: application to foliage; for herbicidal effect, G (Setaria viridis): 320 g/ha
Outline: as §2

Stellaria media = assay: as above; details: application to foliage; for herbicidal effect, P (Stellaria media): 320 g/ha
Outline: as §2

Veronica persica = assay: as above; details: application to foliage; for herbicidal effect, R (Veronica persica): 320 g/ha
Outline: as §2

[4] = application herbicide amount 320 g/ha

Compound	H (herbicidal effect grade) [1]	D (herbicidal effect grade) (Leptochloa chinensis)	b (effect on crop grade) [2]	herbicidal effect, M (Abutilon theophrasti) (Abutilon theophrasti)	herbicidal effect, J (Alopecurus myosuroides) (Alopecurus myosuroides)	herbicidal effect, N (Amaranthus retroflexus) (Amaranthus retroflexus)	herbicidal effect, L (Apera spica-venti.) (Apera spica-venti.)	herbicidal effect, I (Avena fatua) (Avena fatua)	herbicidal effect, O (Chenopodium album) (Chenopodium album)	herbicidal effect, F (Digitaria ciliaris) (Digitaria ciliaris)	herbicidal effect, H (Echinochloa crus-galli var. crus-galli) [3]	herbicidal effect, Q (Galium spurium) (Galium spurium)	herbicidal effect, K (Lolium multiflorum Lam.) (Lolium multiflorum Lam.)	herbicidal effect, G (Setaria viridis) (Setaria viridis)	herbicidal effect, P (Stellaria media) (Stellaria media)	herbicidal effect, R (Veronica persica) (Veronica persica)	also measured
C=CCN(C)c1nnc2c(C(=O)Nc3nnco3)ccc(C(F)(F)F)n12 [1-172]	5 (Herbicidal ratio of 90% or more (almost completely withered))	5 (Herbicidal ratio of 90% or more (almost completely withered))	3 (Herbicidal ratio of 40% or more and less than 70%)	–	–	–	–	–	–	–	–	–	–	–	–	–	M: herbicidal effect on Abutilon theophrasti (Abutilon theophrasti; [4]): 5 (Herbicidal ratio of 90% or more (almost completely withered)); J: herbicidal effect on Alopecurus myosuroides (Alopecurus myosuroides; [4]): 1 (Herbicidal ratio of 5% or more and less than 20%); N: herbicidal effect on Amaranthus retroflexus (Amaranthus retroflexus; [4]): 5 (Herbicidal ratio of 90% or more (almost completely withered)); L: herbicidal effect on Apera spica-venti. (Apera spica-venti.; [4]): 1 (Herbicidal ratio of 5% or more and less than 20%); I: herbicidal effect on Avena fatua (Avena fatua; [4]): 2 (Herbicidal ratio of 20% or more and less than 40%); O: herbicidal effect on Chenopodium album (Chenopodium album; [4]): 5 (Herbicidal ratio of 90% or more (almost completely withered)); F: herbicidal effect on Digitaria ciliaris (Digitaria ciliaris; [4]): 5 (Herbicidal ratio of 90% or more (almost completely withered)); H: herbicidal effect on Echinochloa crus-galli var. crus-galli [3, 4]: 5 (Herbicidal ratio of 90% or more (almost completely withered)); Q: herbicidal effect on Galium spurium (Galium spurium; [4]): 4 (Herbicidal ratio of 70% or more and less than 90%); K: herbicidal effect on Lolium multiflorum Lam. (Lolium multiflorum Lam.; [4]): 1 (Herbicidal ratio of 5% or more and less than 20%); G: herbicidal effect on Setaria viridis (Setaria viridis; [4]): 4 (Herbicidal ratio of 70% or more and less than 90%); P: herbicidal effect on Stellaria media (Stellaria media; [4]): 5 (Herbicidal ratio of 90% or more (almost completely withered)); R: herbicidal effect on Veronica persica (Veronica persica; [4]): 4 (Herbicidal ratio of 70% or more and less than 90%)
COc1ccc(N(C)c2nnc3c(C(=O)Nc4nnnn4C)ccc(C(F)(F)F)n23)cc1 [2-099]	5 (Herbicidal ratio of 90% or more (almost completely withered))	5 (Herbicidal ratio of 90% or more (almost completely withered))	4 (Herbicidal ratio of 70% or more and less than 90%)	4 (Herbicidal ratio of 70% or more and less than 90%)	0 (Herbicidal ratio of 5% or less (almost no effect))	4 (Herbicidal ratio of 70% or more and less than 90%)	1 (Herbicidal ratio of 5% or more and less than 20%)	2 (Herbicidal ratio of 20% or more and less than 40%)	5 (Herbicidal ratio of 90% or more (almost completely withered))	5 (Herbicidal ratio of 90% or more (almost completely withered))	5 (Herbicidal ratio of 90% or more (almost completely withered))	4 (Herbicidal ratio of 70% or more and less than 90%)	1 (Herbicidal ratio of 5% or more and less than 20%)	4 (Herbicidal ratio of 70% or more and less than 90%)	5 (Herbicidal ratio of 90% or more (almost completely withered))	5 (Herbicidal ratio of 90% or more (almost completely withered))	–
C=CCN(C)c1nnc2c(C(=O)Nc3nnnn3C)ccc(C(F)(F)F)n12 [2-100]	5 (Herbicidal ratio of 90% or more (almost completely withered))	5 (Herbicidal ratio of 90% or more (almost completely withered))	3 (Herbicidal ratio of 40% or more and less than 70%)	5 (Herbicidal ratio of 90% or more (almost completely withered))	2 (Herbicidal ratio of 20% or more and less than 40%)	5 (Herbicidal ratio of 90% or more (almost completely withered))	4 (Herbicidal ratio of 70% or more and less than 90%)	3 (Herbicidal ratio of 40% or more and less than 70%)	5 (Herbicidal ratio of 90% or more (almost completely withered))	5 (Herbicidal ratio of 90% or more (almost completely withered))	5 (Herbicidal ratio of 90% or more (almost completely withered))	5 (Herbicidal ratio of 90% or more (almost completely withered))	3 (Herbicidal ratio of 40% or more and less than 70%)	4 (Herbicidal ratio of 70% or more and less than 90%)	5 (Herbicidal ratio of 90% or more (almost completely withered))	5 (Herbicidal ratio of 90% or more (almost completely withered))	–
COCCSc1nnc2c(C(=O)Nc3nnnn3C)ccc(C(F)(F)F)n12 [2-101]	5 (Herbicidal ratio of 90% or more (almost completely withered))	5 (Herbicidal ratio of 90% or more (almost completely withered))	4 (Herbicidal ratio of 70% or more and less than 90%)	5 (Herbicidal ratio of 90% or more (almost completely withered))	3 (Herbicidal ratio of 40% or more and less than 70%)	5 (Herbicidal ratio of 90% or more (almost completely withered))	4 (Herbicidal ratio of 70% or more and less than 90%)	3 (Herbicidal ratio of 40% or more and less than 70%)	5 (Herbicidal ratio of 90% or more (almost completely withered))	5 (Herbicidal ratio of 90% or more (almost completely withered))	5 (Herbicidal ratio of 90% or more (almost completely withered))	4 (Herbicidal ratio of 70% or more and less than 90%)	3 (Herbicidal ratio of 40% or more and less than 70%)	5 (Herbicidal ratio of 90% or more (almost completely withered))	5 (Herbicidal ratio of 90% or more (almost completely withered))	5 (Herbicidal ratio of 90% or more (almost completely withered))	–
C=CCSc1nnc2c(C(=O)Nc3nnnn3C)ccc(C(F)(F)F)n12 [2-102]	5 (Herbicidal ratio of 90% or more (almost completely withered))	4 (Herbicidal ratio of 70% or more and less than 90%)	1 (Herbicidal ratio of 5% or more and less than 20%)	5 (Herbicidal ratio of 90% or more (almost completely withered))	0 (Herbicidal ratio of 5% or less (almost no effect))	5 (Herbicidal ratio of 90% or more (almost completely withered))	3 (Herbicidal ratio of 40% or more and less than 70%)	1 (Herbicidal ratio of 5% or more and less than 20%)	5 (Herbicidal ratio of 90% or more (almost completely withered))	5 (Herbicidal ratio of 90% or more (almost completely withered))	5 (Herbicidal ratio of 90% or more (almost completely withered))	3 (Herbicidal ratio of 40% or more and less than 70%)	1 (Herbicidal ratio of 5% or more and less than 20%)	4 (Herbicidal ratio of 70% or more and less than 90%)	5 (Herbicidal ratio of 90% or more (almost completely withered))	5 (Herbicidal ratio of 90% or more (almost completely withered))	–
C#CCSc1nnc2c(C(=O)Nc3nnnn3C)ccc(C(F)(F)F)n12 [2-103]	5 (Herbicidal ratio of 90% or more (almost completely withered))	5 (Herbicidal ratio of 90% or more (almost completely withered))	1 (Herbicidal ratio of 5% or more and less than 20%)	4 (Herbicidal ratio of 70% or more and less than 90%)	0 (Herbicidal ratio of 5% or less (almost no effect))	5 (Herbicidal ratio of 90% or more (almost completely withered))	2 (Herbicidal ratio of 20% or more and less than 40%)	1 (Herbicidal ratio of 5% or more and less than 20%)	5 (Herbicidal ratio of 90% or more (almost completely withered))	4 (Herbicidal ratio of 70% or more and less than 90%)	5 (Herbicidal ratio of 90% or more (almost completely withered))	4 (Herbicidal ratio of 70% or more and less than 90%)	1 (Herbicidal ratio of 5% or more and less than 20%)	3 (Herbicidal ratio of 40% or more and less than 70%)	5 (Herbicidal ratio of 90% or more (almost completely withered))	4 (Herbicidal ratio of 70% or more and less than 90%)	–
